≈ marks a conversion by molar mass, not a printed value.
Key:
Experiment in all cases: Agar dilution MIC
Details in all cases: 16-20 hours; for Antimicrobial Screening (MIC): 35° C.
S. aureus ATCC 29213 = assay type: cell-based, Staphylococcus aureus
Description: (§1) Briefly, the compounds of invention were weighed, dissolved in dimethyl sulfoxide, serially two fold diluted in the same solvent and then incorporated into molten Mueller Hinton Agar (MHA) in a petridish just before solidification, with each petridish containing a different concentration of a compound.
(§2) The bacterial inoculum was prepared by picking 3 to 5 well isolated bacterial colonies with the same morphological appearance from an 18-24 hours old culture with an inoculating loop, transferring the growth to a tube containing 3 mL of normal saline and adjusting the turbidity of the saline suspension to 0.5 Mc Farland Turbidity Standard equivalent to a bacterial population of 1.5×10^8 colony forming units (CFU) per mL of suspension. The suspension was diluted 1:10 in saline (i.e. 0.5 mL suspension 4.5 mL saline) to get a bacterial population of 1.5×10^7 CFU/mL as inoculum.
(§3) The inoculated petridishes were incubated at 35° C. in an ambient atmosphere for 16-20 hours.

S. aureus ATCC 43300 = assay type: cell-based, Staphylococcus aureus
Description: as §1, §2, §3

S. aureus MRO 00013 = assay type: cell-based, Staphylococcus aureus
Description: as §1, §2, §3

S. aureus MRO 0001 = assay type: cell-based, Staphylococcus aureus
Description: as §1, §2, §3

S. aureus MRO 00030 = assay type: cell-based, Staphylococcus aureus
Description: as §1, §2, §3

S. aureus MRO 0003 = assay type: cell-based, Staphylococcus aureus
Description: as §1, §2, §3

S. aureus MRO 00048 = assay type: cell-based, Staphylococcus aureus
Description: as §1, §2, §3

S. aureus MRO 00055 = assay type: cell-based, Staphylococcus aureus
Description: as §1, §2, §3

S. aureus MRO 00059 = assay type: cell-based, Staphylococcus aureus
Description: as §1, §2, §3

S. aureus MRO 002053 = assay type: cell-based, Staphylococcus aureus
Description: as §1, §2, §3

[1] = test system: S. epidermidis MRO 002046; assay type: cell-based
Description: as §1, §2, §3

S. epidermidis MRO 02002 = assay type: cell-based
Description: as §1, §2, §3

S. epidermidis MRO 02045 = assay type: cell-based
Description: as §1, §2, §3

S. epidermidis MRO 02095 = assay type: cell-based
Description: as §1, §2, §3

[2] = test system: S. haemolyticus MRO 02064; assay type: cell-based
Description: as §1, §2, §3

[3] = test system: S. saprophyticus MRO 02003; assay type: cell-based
Description: as §1, §2, §3

E. faecalis ATCC 29212 = assay type: cell-based, Enterococcus faecalis
Description: as §1, §2, §3

E. faecalis ATCC 51299 = assay type: cell-based, Enterococcus faecalis
Description: as §1, §2, §3

E. faecalis MRO 04035 = assay type: cell-based, Enterococcus faecalis
Description: as §1, §2, §3

E. faecalis MRO 04050 = assay type: cell-based, Enterococcus faecalis
Description: as §1, §2, §3

E. faecalis MRO 04205 = assay type: cell-based, Enterococcus faecalis
Description: as §1, §2, §3

E. faecium ATCC 700221 = assay type: cell-based, Enterococcus faecium
Description: as §1, §2, §3

E. faecium MRO 04037 = assay type: cell-based, Enterococcus faecium
Description: as §1, §2, §3

E. faecium MRO 04038 = assay type: cell-based, Enterococcus faecium
Description: as §1, §2, §3

E. faecium MRO 04198 = assay type: cell-based, Enterococcus faecium
Description: as §1, §2, §3

[4] = test system: M. catarrhalis ATCC 43617; assay type: cell-based, Moraxella catarrhalis
Description: as §1, §2, §3

[5] = test system: M. catarrhalis ATCC 43627; assay type: cell-based, Moraxella catarrhalis
Description: as §1, §2, §3

[6] = test system: M. catarrhalis ATCC 43628; assay type: cell-based, Moraxella catarrhalis
Description: as §1, §2, §3

COC(=S)NC[C@H]1CN(c2ccc(N3CCN(C(=O)c4ccc([N+](=O)[O-])o4)CC3)c(F)c2)C(=O)O1 [Example 7, (S)—O-Methyl(3-(3-fluoro-4-(4-(5-nitrofuran-2-carbonyl)piperazin-1-yl)phenyl)-2-oxooxazolidin-5-yl)methylcarbamothioate]
Antimicrobial Screening (MIC) (S. aureus ATCC 29213): 0.125 µg/mL | Antimicrobial Screening (MIC) (S. aureus ATCC 43300): 0.125 µg/mL | Antimicrobial Screening (MIC) (S. aureus MRO 00013): 0.25 µg/mL | Antimicrobial Screening (MIC) (S. aureus MRO 0001): 0.125 µg/mL | Antimicrobial Screening (MIC) (S. aureus MRO 00030): 0.125 µg/mL | Antimicrobial Screening (MIC) (S. aureus MRO 0003): 0.25 µg/mL | Antimicrobial Screening (MIC) (S. aureus MRO 00048): 0.125 µg/mL | Antimicrobial Screening (MIC) (S. aureus MRO 00055): 0.25 µg/mL | Antimicrobial Screening (MIC) (S. aureus MRO 00059): 0.25 µg/mL | Antimicrobial Screening (MIC) (S. aureus MRO 002053): 0.06 µg/mL | Antimicrobial Screening (MIC) [1]: 0.03 µg/mL | Antimicrobial Screening (MIC) (S. epidermidis MRO 02002): 0.03 µg/mL | Antimicrobial Screening (MIC) (S. epidermidis MRO 02045): 0.125 µg/mL | Antimicrobial Screening (MIC) (S. epidermidis MRO 02095): 0.03 µg/mL | Antimicrobial Screening (MIC) [2]: 0.125 µg/mL | Antimicrobial Screening (MIC) [3]: 0.125 µg/mL | Antimicrobial Screening (MIC) (E. faecalis ATCC 29212): 0.125 µg/mL | Antimicrobial Screening (MIC) (E. faecalis ATCC 51299): 0.125 µg/mL | Antimicrobial Screening (MIC) (E. faecalis MRO 04035): 0.125 µg/mL | Antimicrobial Screening (MIC) (E. faecalis MRO 04050): 0.125 µg/mL | Antimicrobial Screening (MIC) (E. faecalis MRO 04205): 0.125 µg/mL | Antimicrobial Screening (MIC) (E. faecium ATCC 700221): 0.125 µg/mL | Antimicrobial Screening (MIC) (E. faecium MRO 04037): 0.25 µg/mL | Antimicrobial Screening (MIC) (E. faecium MRO 04038): 0.125 µg/mL | Antimicrobial Screening (MIC) (E. faecium MRO 04198): 0.25 µg/mL | Antimicrobial Screening (MIC) [4]: 0.25 µg/mL | Antimicrobial Screening (MIC) [5]: 0.25 µg/mL | Antimicrobial Screening (MIC) [6]: 0.25 µg/mL

COC(=S)NC[C@H]1CN(c2ccc(N3CCN(C(=O)C4CC4)CC3)c(F)c2)C(=O)O1 [Example 47, (S)—O-Methyl (3-(4-(4-(cyclopropanecarbonyl)piperazin-1-yl)-3-fluorophenyl)-2-oxooxazolidin-5-yl)methylcarbamothioate]
MIC (S. aureus ATCC 29213; Staphylococcus aureus, ATCC29213, 35° C., read-out: Antimicrobial Screening (MIC)): 1 µg/mL (≈ 2.29 µM) | MIC (S. aureus ATCC 43300; Staphylococcus aureus, ATCC43300, 35° C., read-out: Antimicrobial Screening (MIC)): 0.5 µg/mL (≈ 1.15 µM) | MIC (S. aureus MRO 00013; Staphylococcus aureus, MRO00013, 35° C., read-out: Antimicrobial Screening (MIC)): 1 µg/mL (≈ 2.29 µM) | MIC (S. aureus MRO 0001; Staphylococcus aureus, MRO0001, 35° C., read-out: Antimicrobial Screening (MIC)): 0.5 µg/mL (≈ 1.15 µM) | MIC (S. aureus MRO 00030; Staphylococcus aureus, MRO00030, 35° C., read-out: Antimicrobial Screening (MIC)): 1 µg/mL (≈ 2.29 µM) | MIC (S. aureus MRO 0003; Staphylococcus aureus, MRO0003, 35° C., read-out: Antimicrobial Screening (MIC)): 1 µg/mL (≈ 2.29 µM) | MIC (S. aureus MRO 00048; Staphylococcus aureus, MRO00048, 35° C., read-out: Antimicrobial Screening (MIC)): 0.5 µg/mL (≈ 1.15 µM) | MIC (S. aureus MRO 00055; Staphylococcus aureus, MRO00055, 35° C., read-out: Antimicrobial Screening (MIC)): 1 µg/mL (≈ 2.29 µM) | MIC (S. aureus MRO 00059; Staphylococcus aureus, MRO00059, 35° C., read-out: Antimicrobial Screening (MIC)): 0.5 µg/mL (≈ 1.15 µM) | MIC (S. aureus MRO 002053; Staphylococcus aureus, MRO002053, 35° C., read-out: Antimicrobial Screening (MIC)): 0.5 µg/mL (≈ 1.15 µM) | MIC ([1]; Staphylococcus epidermidis, MRO002046, 35° C., read-out: Antimicrobial Screening (MIC)): 0.5 µg/mL (≈ 1.15 µM) | MIC (S. epidermidis MRO 02002; Staphylococcus epidermidis, MRO02002, 35° C., read-out: Antimicrobial Screening (MIC)): 1 µg/mL (≈ 2.29 µM) | MIC (S. epidermidis MRO 02045; Staphylococcus epidermidis, MRO02045, 35° C., read-out: Antimicrobial Screening (MIC)): 1 µg/mL (≈ 2.29 µM) | MIC (S. epidermidis MRO 02095; Staphylococcus epidermidis, MRO02095, 35° C., read-out: Antimicrobial Screening (MIC)): 0.5 µg/mL (≈ 1.15 µM) | MIC ([2]; Staphylococcus haemolyticus, MRO02064, 35° C., read-out: Antimicrobial Screening (MIC)): 0.5 µg/mL (≈ 1.15 µM) | MIC ([3]; Staphylococcus saprophyticus, MRO02003, 35° C., read-out: Antimicrobial Screening (MIC)): 1 µg/mL (≈ 2.29 µM) | MIC (E. faecalis ATCC 29212; Enterococcus faecalis, ATCC29212, 35° C., read-out: Antimicrobial Screening (MIC)): 0.5 µg/mL (≈ 1.15 µM) | MIC (E. faecalis ATCC 51299; Enterococcus faecalis, ATCC51299, 35° C., read-out: Antimicrobial Screening (MIC)): 0.5 µg/mL (≈ 1.15 µM) | MIC (E. faecalis MRO 04035; Enterococcus faecalis, MRO04035, 35° C., read-out: Antimicrobial Screening (MIC)): 0.5 µg/mL (≈ 1.15 µM) | MIC (E. faecalis MRO 04050; Enterococcus faecalis, MRO04050, 35° C., read-out: Antimicrobial Screening (MIC)): 0.5 µg/mL (≈ 1.15 µM) | MIC (E. faecalis MRO 04205; Enterococcus faecalis, MRO04205, 35° C., read-out: Antimicrobial Screening (MIC)): 0.5 µg/mL (≈ 1.15 µM) | MIC (E. faecium ATCC 700221; Enterococcus faecium, ATCC700221, 35° C., read-out: Antimicrobial Screening (MIC)): 0.5 µg/mL (≈ 1.15 µM) | MIC (E. faecium MRO 04037; Enterococcus faecium, MRO04037, 35° C., read-out: Antimicrobial Screening (MIC)): 0.5 µg/mL (≈ 1.15 µM) | MIC (E. faecium MRO 04038; Enterococcus faecium, MRO04038, 35° C., read-out: Antimicrobial Screening (MIC)): 0.5 µg/mL (≈ 1.15 µM) | MIC (E. faecium MRO 04198; Enterococcus faecium, MRO04198, 35° C., read-out: Antimicrobial Screening (MIC)): 0.5 µg/mL (≈ 1.15 µM) | MIC ([4]; Moraxella catarrhalis, ATCC43617, 35° C., read-out: Antimicrobial Screening (MIC)): 1 µg/mL (≈ 2.29 µM) | MIC ([5]; Moraxella catarrhalis, ATCC43627, 35° C., read-out: Antimicrobial Screening (MIC)): 2 µg/mL (≈ 4.58 µM) | MIC ([6]; Moraxella catarrhalis, ATCC43628, 35° C., read-out: Antimicrobial Screening (MIC)): 2 µg/mL (≈ 4.58 µM)

COC(=S)NC[C@H]1CN(c2ccc(N3CCN(C(=S)n4ccnc4)CC3)c(F)c2)C(=O)O1 [Example 76, (S)—O-Methyl(3-(4-(4-(1H-imidazole-1-carbonothioyl)piperazin-1-yl)-3-fluorophenyl)-2-oxooxazolidin-5-yl)methylcarbamothioate]
Antimicrobial Screening (MIC) (S. aureus ATCC 29213): 0.5 µg/mL | Antimicrobial Screening (MIC) (S. aureus ATCC 43300): 0.25 µg/mL | Antimicrobial Screening (MIC) (S. aureus MRO 00013): 0.5 µg/mL | Antimicrobial Screening (MIC) (S. aureus MRO 0001): 0.5 µg/mL | Antimicrobial Screening (MIC) (S. aureus MRO 00030): 0.25 µg/mL | Antimicrobial Screening (MIC) (S. aureus MRO 0003): 0.5 µg/mL | Antimicrobial Screening (MIC) (S. aureus MRO 00048): 0.25 µg/mL | Antimicrobial Screening (MIC) (S. aureus MRO 00055): 0.5 µg/mL | Antimicrobial Screening (MIC) (S. aureus MRO 00059): 0.25 µg/mL | Antimicrobial Screening (MIC) (S. aureus MRO 002053): 0.25 µg/mL | Antimicrobial Screening (MIC) [1]: 0.25 µg/mL | Antimicrobial Screening (MIC) (S. epidermidis MRO 02002): 0.25 µg/mL | Antimicrobial Screening (MIC) (S. epidermidis MRO 02045): 0.25 µg/mL | Antimicrobial Screening (MIC) (S. epidermidis MRO 02095): 0.25 µg/mL | Antimicrobial Screening (MIC) [2]: 0.25 µg/mL | Antimicrobial Screening (MIC) [3]: 0.5 µg/mL | Antimicrobial Screening (MIC) (E. faecalis ATCC 29212): 0.25 µg/mL | Antimicrobial Screening (MIC) (E. faecalis ATCC 51299): 0.25 µg/mL | Antimicrobial Screening (MIC) (E. faecalis MRO 04035): 0.25 µg/mL | Antimicrobial Screening (MIC) (E. faecalis MRO 04050): 0.25 µg/mL | Antimicrobial Screening (MIC) (E. faecalis MRO 04205): 0.25 µg/mL | Antimicrobial Screening (MIC) (E. faecium ATCC 700221): 0.25 µg/mL | Antimicrobial Screening (MIC) (E. faecium MRO 04037): 0.25 µg/mL | Antimicrobial Screening (MIC) (E. faecium MRO 04038): 0.25 µg/mL | Antimicrobial Screening (MIC) (E. faecium MRO 04198): 0.25 µg/mL | Antimicrobial Screening (MIC) [4]: 1 µg/mL | Antimicrobial Screening (MIC) [5]: 1 µg/mL | Antimicrobial Screening (MIC) [6]: 1 µg/mL

Source: patent US20100234390A1, “NOVEL COMPOUND AND THEIR USE” (priority 2007, published 2010)
